The source of these data is patent US10233151B2, “Use of a novel 3-aryl-4-catechol-pyrrole-N-propanol compound and the derivatives thereof to treat cancer and diseases related to excessive angiogenesis” (Centre National de la Recherche Scientifique (CNRS), priority 2014, dated 2019).

In data set [1] the test system is human endothelial cells (HUVEC). In words: De novo formation of vascular tubes on Matrigel. The class given is cell-based. As to conditions: HUVEC in Matrigel, 24 hours. How it is done:
In order to monitor the effect of compound (1) on “de novo” formation of vascular tubes, human endothelial cells (HUVEC) were cultured in a matrix (Matrigel), in the presence or absence of compound (1). After 24 hours, the effect of compound (1) is analyzed by optical microscopy and is illustrated by photographs. […] Compound (1) thus acts directly on growing endothelial cells by blocking the formation of capillaries, in contrast to the absence of effect on a capillary network already formed, in the “quiescent” state.

Data set [2] is described as follows: EPR competition with BMPO, superoxide anion from xanthine/xanthine oxidase (aqueous phase). As to conditions: xanthine oxidase 53 mU/mL + xanthine 250 μM in PBS pH 7.4, BMPO 50 mM, 10 minutes of incubation; read-out: IC50, inhibition of the formation of the BMPO superoxide adduct. The class given is biochemical. The protocol: The reactivity of compound (1) with superoxide anion in the aqueous phase was also studied by EPR at room temperature using the same competition method with the trapping reagent BMPO at 50 mM (FIG. 1B). In this case, superoxide anion is produced by enzymatic reaction of xanthine oxidase (XO, 53 mU/mL) with xanthine (X, 250 μM) in PBS (pH 7.4) containing 0.1 mM ethylenediaminetetraacetic acid (EDTA). The concentrations used for compound (1) are between 0.34 μM and 43.1 μM. These experiments were carried out with an ELEXSYS E500 EPR spectrometer (Bruker, Wissembourg, France), operating at a frequency of 9.82 GHz (X-band) with the following parameters: magnetic field: 349.0 ±6.6 mT; sweep time: 41.94 s; sampling: 1024 points; time constant: 40.96 ms; conversion time: 40.96 ms; modulation amplitude: 0.10 mT; modulation frequency: 100 kHz; gain: 60 dB; microwave power: 10 mW.

The test system of a further data set is K562 cells. In words: Cell growth test (CellTiter-Blue), K562. Format: cell-based. Particulars: Homo sapiens; K562, normoxia, 72 hours; read-out: IC50 (50% decrease in cell growth). The protocol: (§1) The biological activity of compound (1), as well as that of its structural analogues, was studied in vitro on 7 different cancer cell lines: • HCT-116 (colorectal cancer) • U87 (glioblastoma) • K562 (myeloid leukemia) and K562 R • MDA-MB 231 (mammary adenocarcinoma) • MCF-7 (mammary adenocarcinoma) • A549 (pulmonary alveolar adenocarcinoma)
(§2) The cells selected for this study were incubated at 37° C. in the presence of compound (1) added in the culture medium at various concentrations and at various times. The set of experiments carried out made it possible to determine the degree of cytotoxicity of the compound tested (IC50), its capacity to induce cell death by apoptosis, in close dependence on extracellular superoxide anion for its activation.
(§3) The effect of compound (1) on the growth of HCT-116, U87, K562, K562R, MDA-MB 231, MCF-7 and A549 cells, cultured in normoxia, was evaluated using a cell growth test (CellTiter-Blue™ Cell Viability Assay, Promega).

For another data set, the system named is U87 cells. In words: VEGF secretion by ELISA, U87 culture supernatant. As to conditions: U87, normoxic and hypoxic (2% O2) conditions, concentrations of 5 to 50, 24 hours. Format: cell-based, human. How it is done: At the tenth day of embryonic development, glioblastoma cells (U87, 5×10^6 in 20 μL) were deposited on the chorioallantoic membrane. Two days after the graft, compound (1) at a concentration of 50 μM in a volume of 20 μL was deposited on the surface of the tumor formed. This treatment was repeated every 24 hours for 5 days. The control group was treated with solvent. The test was carried out on 20 eggs bearing glioblastoma tumors for each group. Images of the tumors were taken at day 3 (24 hours after treatment), at day 5 (3 days after treatment) and at day 7 (5 days after treatment) of tumor development. […] In order to determine the antiangiogenic mechanism of compound (1), VEGF was assayed by the ELISA method (Invitrogen, Novex technology), from the culture supernatant of U87 and HCT-116 cells, under normoxic and hypoxic conditions.
Background: ELISA stands for enzyme-linked immunosorbent assay.

Data set [3] deals with caspases 3 and 7 in U87 cells. In words: Caspase 3 and 7 activity (ApoONE test), U87. Format: cell-based, human. As to conditions: U87, normoxia, 24 hours, 1 μM to 50 μM. The protocol:
In order to specify whether compound (1) leads to apoptotic cell death, the activity of caspases 3 and 7, marker enzymes of apoptosis, was measured using the ApoONE test (Promega) in HCT-116, U87 and HL60 cells treated in normoxia for 24 hours with compound (1) at concentrations varying from 1 μM to 50 μM.

A further data set deals with MCF-7 cells. In words: Cell growth test (CellTiter-Blue), MCF-7. Particulars: Homo sapiens, MCF7; MCF-7, normoxia, 72 hours; read-out: IC50 (50% decrease in cell growth). The class given is cell-based. The protocol: as §1, §2, §3
(Alamar Blue is a resazurin reagent that responds to reducing activity.)

Data set [4] relates to HCT-116 cells. In words: Cell growth test (CellTiter-Blue), HCT-116. As to conditions: Homo sapiens, HCT-116, 72 h, HCT-116, normoxia, 72 hours; read-out: IC50 (50% decrease in cell growth). The class given is cell-based. The protocol:
as §1
The cells selected for this study were incubated at 37° C. in the presence of compound (1) added in the culture medium at various concentrations and at various times. The set of experiments carried out made it possible to determine the degree of cytotoxicity of the compound tested (IC50), its capacity to induce cell death by apoptosis, in close dependence on extracellular superoxide anion for its activation. […]

In another data set the test system is MDA-MB 231 cells. In words: Cell growth test (CellTiter-Blue), MDA-MB 231. The class given is cell-based. Particulars: Homo sapiens; MDA-MB 231, normoxia, 72 hours; read-out: IC50 (50% decrease in cell growth). The protocol:
as §1, §2, §3

The subject of data set [5] is HCT-116 cells. In words: Cell survival after SOD pretreatment. Format: cell-based. Particulars: HCT-116, SOD1 50 U/ml 1 hour pretreatment. The protocol:
In order to determine the role of superoxide anion, produced by the cells, in the activation of compound (1), HCT-116 cells were pretreated for 1 hour with the enzyme superoxide dismutase (SOD1) at 50 U/ml, then treated with compound (1). The cells were analyzed to evaluate, firstly, cell survival in normoxia (72 hours of treatment) and in hypoxia (48 hours of treatment). Secondly, the formation of condensed chromatin in normoxia and the activity of caspases 3 and 7 in normoxia were evaluated.

Data set [6] can be described thus: EPR at 77 K, disappearance of the O2°- signal. Particulars: KO2 2.5 mM in DMSO, dependent on concentration. How it is done: In order to follow the direct interaction of compound (1) with superoxide anion, solid potassium superoxide (KO2) was dissolved by sonication in DMSO (final concentration 2.5 mM), then mixed with compound (1) and immediately cooled by immersion in liquid nitrogen. EPR analysis at 77 K (liquid nitrogen) was carried out with a MiniScope MS 100 EPR spectrometer, operating at a frequency of 9.5 GHz (X-band) with the following parameters: magnetic field: 336.0±49.8 mT; sweep time: 20 s; sampling: 4096 points; modulation amplitude: 0.10 mT; modulation frequency: 100 kHz; gain: 900; microwave power: 6 mW.

As for `OCCCn1cc(-c2ccccc2)c(-c2ccc(O)c(O)c2)c1` [compound (1)], in data set [1], the “de novo formation of vascular tubes (capillaries)” value is listed as “prevents the formation of capillaries”. In addition, the IC50 in data set [2] came out at 3.2 µM; with K562 cells, 232 µM; in the data set on MCF-7 cells it was 15 µM; in the data set with HCT-116 cells [4], 7.5 µM; in the data set on MDA-MB 231 cells, 20 µM. Moreover, in the data set with U87 cells, the VEGF secretion entry is “does not modify VEGF secretion”. In data set [3], the “activity of caspases 3 and 7” value is “significant activation of both caspases”. Besides, the “cytotoxic effect after SOD pretreatment” value is listed as “completely blocks the cytotoxic effect” in the data set on HCT-116 cells [5] (10 μM, normoxia, 72 hours) and “completely blocks the cytotoxic effect” in the data set on HCT-116 cells [5] (25 μM, hypoxia, 48 hours). In addition, the “EPR signal of superoxide anion” value in data set [6] is “decrease in the EPR signal of superoxide anion”.

The IC50 is the concentration that gives 50% inhibition.
